Molecular target: T1, USP28 (His-tagged USP28-FL-mammalian) (Homo sapiens, UniProt Q96RU2)
T1 construct: Expression of USP28 (1-1077)-TEV-6*His (pTT5 vector) was carried out in Expi293f cells; made in house; host or cells: Expi293f cells (pTT5 vector)
T1 sequence (Q96RU2 1-1077): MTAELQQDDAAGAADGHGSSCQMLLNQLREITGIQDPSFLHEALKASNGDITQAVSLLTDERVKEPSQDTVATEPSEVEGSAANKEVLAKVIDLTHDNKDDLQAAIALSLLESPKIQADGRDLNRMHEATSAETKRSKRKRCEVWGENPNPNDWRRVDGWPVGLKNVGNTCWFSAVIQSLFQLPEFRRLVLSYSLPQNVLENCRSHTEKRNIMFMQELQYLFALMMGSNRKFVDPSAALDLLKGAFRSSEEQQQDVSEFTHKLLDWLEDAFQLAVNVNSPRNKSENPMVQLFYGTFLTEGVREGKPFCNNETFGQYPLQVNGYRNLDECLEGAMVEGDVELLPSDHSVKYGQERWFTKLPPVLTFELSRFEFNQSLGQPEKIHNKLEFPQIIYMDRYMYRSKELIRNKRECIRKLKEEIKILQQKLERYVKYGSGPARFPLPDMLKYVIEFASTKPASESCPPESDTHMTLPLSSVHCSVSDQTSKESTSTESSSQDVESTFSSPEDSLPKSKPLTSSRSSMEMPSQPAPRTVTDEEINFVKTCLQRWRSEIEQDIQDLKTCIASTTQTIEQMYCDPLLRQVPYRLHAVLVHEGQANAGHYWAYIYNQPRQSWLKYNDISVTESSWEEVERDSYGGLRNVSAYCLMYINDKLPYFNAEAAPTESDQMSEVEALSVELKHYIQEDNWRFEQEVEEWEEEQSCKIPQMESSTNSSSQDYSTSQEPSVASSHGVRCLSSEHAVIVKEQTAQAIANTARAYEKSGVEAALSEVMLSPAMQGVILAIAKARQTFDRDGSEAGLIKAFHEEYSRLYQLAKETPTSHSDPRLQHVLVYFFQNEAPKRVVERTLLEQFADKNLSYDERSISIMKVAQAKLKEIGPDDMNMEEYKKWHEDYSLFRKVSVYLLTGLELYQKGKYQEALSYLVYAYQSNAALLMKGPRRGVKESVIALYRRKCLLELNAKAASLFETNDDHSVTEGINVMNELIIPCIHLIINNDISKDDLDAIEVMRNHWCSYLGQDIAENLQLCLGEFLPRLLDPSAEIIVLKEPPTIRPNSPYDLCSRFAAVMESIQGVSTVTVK
Test: Ubiquitin-Rhodamine 110 Assay for USP28 Activity, Example A-1(a)
Format: biochemical
Conditions: USP28, 75 pM enzyme, 25 nM Ub-Rh110, 1536-well, 30 min preincubation; read-out: Assay A-1(a) (IC50 range)
Procedure: The assay was performed in a final volume of 9 μL in assay buffer containing 20 mM Tris-HCl (pH 8.0, (1M Tris-HCl, pH 8.0 solution; Corning 46-031-CM)), 3 mM BME (2-Mercaptoethanol; Sigma 63689-25ML-F), 0.03% BGG (0.22 μM filtered, Sigma, G7516-25G), and 0.01% Triton X-100 (Sigma, T9284-10L). Nanoliter quantities of 10-point, 3-fold serial dilution in DMSO was pre-dispensed into 1536 assay plates (Corning, #3724BC) for a final test concentration of 25 μM to 1.3 nM, top to lowest dose, respectively. Enzyme USP28, construct His-tagged USP28-FL-mammalian, (protein expression and purification procedure described below). Concentration and incubation times were optimized for the maximal signal-to-background while maintaining initial velocity conditions at a fixed substrate concentration. The final concentration of the enzyme in the assay was 75 pM. Final substrate (Ub-Rh110; Ubiquitin-Rhodamine 110, UbiQ-126) concentration was 25 nM with [Ub-Rh110]<<Km. 3 μL of 2× enzyme was added to assay plates (pre-stamped with compound) preincubated with […] for 30 minutes and then 3 μL of 2×Ub-Rh110 was added to assay plates. Plates were incubated for 45 minutes at room temperature before addition of 3 μL of stop solution (final concentration of 10 mM citric acid (Sigma, 251275-500G)). Fluorescence was read on the Envision (Excitation at 485 nm and Emission at 535 nm; Perkin Elmer) or on the PheraSTAR (Excitation at 485 nm and Emission at 535 nm; BMG Labtech).
Expression of USP28 (1-1077)-TEV-6*His (pTT5 vector) was carried out in Expi293f cells (sequence derived from uniprot ID: Q96RU2-1). Cells were re-suspended in lysis buffer B 50 mM Bicine, pH 8.0, 20 mM NaCl, 5% glycerol, 0.1% CHAPS, 5 mM β-ME, 1 mM PMSF, 1 μg/ml Leupeptin, 1 μg/ml Pepstatin) and lysed by sonication. Insoluble material was removed by centrifugation and the supernatant was loaded onto a Ni-NTA column (GE Healthcare) equilibrated with Ni Buffer A (50 mM Bicine, pH 8.0, 20 mM NaCl, 5% glycerol, 0.1% CHAPS, 5 mM β-ME.) and washed with Ni Buffer A+20 mM imidazole until A280 reached baseline. The protein was eluted with Ni Buffer B (50 mM Bicine, pH 8.0, 20 mM NaCl, 5% glycerol, 0.1% CHAPS, 5 mM β-ME, 300 mM imidazole.). The protein was further purified using a Superdex™ 200 10/300 GL column (GE Healthcare) equilibrated with 50 mM Bicine, pH 8.0, 20 mM NaCl, 5% glycerol, 0.1% CHAPS, 5 mM β-ME. The protein was concentrated to 2.5 mg ml^−1, flash-frozen in liquid N2 and stored at −80° C.
For assay formats Examples A-1a, A-1b, and A-2, data were reported as percent inhibition compared with control wells based on the following equation: % inh=1−((FLU−AveLow)/(AveHigh−AveLow)) where FLU=measured Fluorescence, AveLow=average Fluorescence of no enzyme control (n=16), and AveHigh=average Fluorescence of DMSO control (n=16). IC50 values were determined by curve fitting of the standard 4 parameter logistic fitting algorithm included in the Activity Base software package: IDBS XE Designer Model205. Data is fitted using the Levenburg Marquardt algorithm.

| Structure (SMILES) | IC50 |
| --- | --- |
| CCn1ccc2cc(C(=O)NCCc3ccc(N4CC5CCC(C4)N5)cc3)cnc21 [Example 1-6, N-(4-(3,8-diazabicyclo[3.2.1]octan-3-yl)phenethyl)-1-ethyl-1H-pyrrolo[2,3-b]pyridine-5-carboxamide] | 1 to 50 nM |
| O=C(NCCc1ccc(N2CCNCC2)cc1)c1cnc2[nH]ccc2c1 [Example 1-2, N-(4-(piperazin-1-yl)phenethyl)-1H-pyrrolo[2,3-b]pyridine-5-carboxamide] | 200 to 2000 nM |
| Nc1c(C(=O)NCCc2ccc(N3CCNCC3)cc2)cnc2[nH]ccc12 [Example 1-5, 4-amino-N-(4-(piperazin-1-yl)phenethyl)-1H-pyrrolo[2,3-b]pyridine-5-carboxamide] | 200 to 2000 nM |
| CCn1ccc2cc(C(=O)NC[C@H](C)c3cc(F)c(N4CCNCC4)cc3F)cnc21 (single isomer, unassigned) [Example 2-2] | 200 to 2000 nM |
| CC(C)(O)Cn1ccc2cc(C(=O)NCCc3cc(F)c(N4CC5CCC(C4)N5)cc3F)cnc21 [Example 1-9, N-(4-(3,8-diazabicyclo[3.2.1]octan-3-yl)-2,5-difluorophenethyl)-1-(2-hydroxy-2-methylpropyl)-1H-pyrrolo[2,3-b]pyridine-5-carboxamide] | 2000 to 10000 nM |
| CCn1ccc2cc(C(=O)NC[C@@H](C)c3cc(F)c(N4CC5CCC(C4)N5)cc3F)cnc21 (single isomer, unassigned) [Example 2-4] | 50 to 200 nM |
| CCn1ccc2cc(C(=O)NCCc3ccc(N4CC5CCC(C4)N5)c(F)c3)cnc21 [Example 1-10, N-(4-(3,8-diazabicyclo[3.2.1]octan-3-yl)-3-fluorophenethyl)-1-ethyl-1H-pyrrolo[2,3-b]pyridine-5-carboxamide] | 1 to 50 nM |
| CCn1ccc2cc(C(=O)NC[C@@H](C)c3cc(F)c(N4CC5CCC(C4)N5)cc3F)nnc21 (single isomer, unassigned) [Example 4-3] | 50 to 200 nM |
| CCn1ccc2cc(C(=O)NC[C@H](C)c3cc(F)c(N4CC5CCC(C4)N5)cc3F)nnc21 (single isomer, unassigned) [Example 4-2] | 50 to 200 nM |
| Cn1ccc2cc(C(=O)NCCc3ccc(N4CCNCC4)cc3)cnc21 [Example 1-3, 1-methyl-N-(4-(piperazin-1-yl)phenethyl)-1H-pyrrolo[2,3-b]pyridine-5-carboxamide] | 200 to 2000 nM |
| CCn1cc(Cl)c2cc(C(=O)NCCc3cc(F)c(N4CC5CCC(C4)N5)cc3F)nnc21 [Example 4-4, N-(4-(3,8-diazabicyclo[3.2.1]octan-3-yl)-2,5-difluorophenethyl)-5-chloro-7-ethyl-7H-pyrrolo[2,3-c]pyridazine-3-carboxamide] | 1 to 50 nM |
| CCn1ccc2cc(C(=O)NCCc3ccc(N4CCNCC4)cc3)cnc21 [Example 1-4, 1-ethyl-N-(4-(piperazin-1-yl)phenethyl)-1H-pyrrolo[2,3-b]pyridine-5-carboxamide] | 1 to 50 nM |
| CCn1cc(Cl)c2cc(C(=O)NCCc3ccc(N4CCNCC4)cc3)cnc21 [Example 3-1, 3-Chloro-1-ethyl-N-[2-[4-(piperazin-1-yl)phenyl]ethyl]-1H-pyrrolo[2,3-b]pyridine-5-carboxamide] | 1 to 50 nM |
| CCn1ccc2cc(C(=O)NCCc3cc(F)c(N4CC5CCC(C4)N5)cc3F)cnc21 [Example 1-1, N-[2-(4-[3,8-diazabicyclo[3.2.1]octan-3-yl]-2,5-difluorophenyl)ethyl]-1-ethyl-1H-pyrrolo[2,3-b]pyridine-5-carboxamide] | 1 to 50 nM |
| CCn1ccc2cc(C(=O)NCCc3cc(F)c(N4CC5CCC(C4)N5)cc3F)nnc21 [Example 4-1, N-[2-(4-[3,8-diazabicyclo[3.2.1]octan-3-yl]-2,5-difluorophenyl)ethyl]-7-ethyl-7H-pyrrolo[2,3-c]pyridazine-3-carboxamide] | 1 to 50 nM |
| O=C(NCCc1ccc(N2CCNCC2)cc1)c1cnc2[nH]cc(Cl)c2c1 [Example 3-2, 3-chloro-N-(4-(piperazin-1-yl)phenethyl)-1H-pyrrolo[2,3-b]pyridine-5-carboxamide] | 200 to 2000 nM |
| CCn1ccc2cc(C(=O)NC[C@H](C)c3cc(F)c(N4CC5CCC(C4)N5)cc3F)cnc21 (single isomer, unassigned) [Example 2-3] | 1 to 50 nM |
| CCn1ccc2cc(C(=O)NCCc3cc(F)c(N4CCNCC4)cc3F)cnc21 [Example 1-7, N-(2,5-difluoro-4-(piperazin-1-yl)phenethyl)-1-ethyl-1H-pyrrolo[2,3-b]pyridine-5-carboxamide] | 1 to 50 nM |
| O=C(NCCc1ccc(N2CCNCC2)cc1)c1cnc2c(ccn2CC(F)(F)F)c1 [Example 1-8] | 1 to 50 nM |
| CCn1ccc2cc(C(=O)NC[C@@H](C)c3cc(F)c(N4CCNCC4)cc3F)cnc21 (single isomer, unassigned) [Example 2-1] | 50 to 200 nM |
